US20160355483A1, “COMPOUND BINDING TO PPARG BUT NOT ACTING AS PROMOTER AND PHARMACEUTICAL COMPOSITION FOR TREATING PPARG-RELATED DISEASES CONTAINING SAME AS ACTIVE INGREDIENT” (Hyundai Pharm Co., Ltd., priority 2014, published 2016)

target: T1, PPARG (peroxisome proliferator activated receptor-gamma), GST-PPARG-LBD (Homo sapiens, UniProt P37231); experiment: LanthaScreen TR-FRET PPARG Competitive Binding Assay; design: key: “+” indicates the degree of the binding activity, and as the number of “+” increases, the binding activity is stronger; ++: “+” indicates the degree of the binding activity, and as the number of “+” increases, the binding activity is stronger; +++: “+” indicates the degree of the binding activity, and as the number of “+” increases, the binding activity is stronger; ++++: “+” indicates the degree of the binding activity, and as the number of “+” increases, the binding activity is stronger; conditions: degree of binding activity
T1 construct: 15 μL of 5 nM GST-PPARG-LBD and 5 nM Tb-GST-antibody were added; purchased Invitrogen PV4894
T1 sequence (P37231 238-503 limits assumed): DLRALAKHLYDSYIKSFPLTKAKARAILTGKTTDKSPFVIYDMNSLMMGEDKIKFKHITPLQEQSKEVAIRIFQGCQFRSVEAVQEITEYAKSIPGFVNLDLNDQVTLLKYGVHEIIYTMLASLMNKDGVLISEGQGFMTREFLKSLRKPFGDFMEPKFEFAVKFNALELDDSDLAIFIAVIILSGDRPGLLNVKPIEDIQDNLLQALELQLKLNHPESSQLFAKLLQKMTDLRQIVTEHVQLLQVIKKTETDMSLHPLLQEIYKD
Protocol: The following experiment was performed to evaluate the PPARG (peroxisome proliferator activated receptor-gamma) binding capacity and transcriptional activity of the compounds prepared in the examples of the invention. For the experiment, LanthaScreen™ TR-FRET PPARG Competitive Binding Assay Kit (PV4894, Invitrogen) was used according to the manufacturer's instruction. […] The mixture was loaded in a 384-well plate (Greiner, 784075) by 20 μL per well, followed by reaction at room temperature for 1 hour. Upon completion of the reaction, fluorescence value was measured by using Flexstation 3 (Molecular Devices) with time-resolved fluorescence (RFU) mode (excitation 1: 340 nm, emission 1: 518 nm, excitation 2: 340 nm, emission 2: 488 nm, integration delay 50 μs, integration 400 μs). The results were calculated by using 518 nm RFUs/488 nm RFUs ratio. The activity of the compounds of the invention was compared with that of the vehicle, which was calculated by ratio according to the formula [100%−compound of the example ratio/vehicle ratio]. At this time, the binding activity ratio to rosiglitazone was compared.

Question: How did the “Binding assay (1 μLM)” value turn out when `C[C@H](NC(=O)c1ccc2c(c1)CCCN2Cc1ccc(-c2ccccc2C(=O)O)cc1)c1ccccc1` [Example 1, (S)-4′-((6-((1-phenylethyl)carbamoyl)-3,4-dihydroquinoline-1(2H)-yl)methyl)-[1,1′-biphenyl]-2-carboxylic acid] was run?
Answer: +++

Question: Which “Binding assay (1 μLM)” value does the source give for `C[C@H](NC(=O)c1ccc2c(c1)CCCN2Cc1ccc(-c2ccccc2C(N)=O)cc1)c1ccccc1` [Example 2, (S)-1-((2′-carbamoyl-[1,1′-biphenyl]-4-yl)methyl)-N-(1-phenylethyl)-1,2,3,4-tetrahydroquinoline-6-carboxamide] here?
Answer: +++

Question: For `C[C@H](NC(=O)c1ccc2c(c1)CCCN2Cc1ccc(-c2ccccc2C(=O)O)cc1)c1ccc([N+](=O)[O-])cc1` [Example 3, (S)-4′-((6-((1-(4-nitrophenyl)ethyl)carbamoyl)-3,4-dihydroquinoline-1(2H)-yl)methyl)-[1,1′-biphenyl]-2-caboxylic acid], which “Binding assay (1 μLM)” value is on record?
Answer: +

Question: `Cc1cc(F)ccc1[C@H](C)NC(=O)c1ccc2c(c1)CCCN2Cc1ccc(-c2ccccc2C(=O)O)cc1` [Example 4, (S)-4′-((6-((1-(4-fluoro-2-methylphenyl)ethyl)carbamoyl)-3,4-dihydroquinoline-1(2H)-yl)methyl)-[1,1′-biphenyl]-2-carboxylic acid] was tested. Which “Binding assay (1 μLM)” value did it give?
Answer: +++

Question: Which “Binding assay (1 μLM)” value does the source give for `Cc1ccc([C@H](C)NC(=O)c2ccc3c(c2)CCCN3Cc2ccc(-c3ccccc3C(=O)O)cc2)cc1F` [Example 5, (S)-4′-((6-((1-(3-fluoro-4-methylphenyl)ethyl)carbamoyl)-3,4-dihydroquinoline-1(2H)-yl)methyl)-[1,1′-biphenyl]-2-caboxylic acid] here?
Answer: ++

Question: `C[C@H](NC(=O)c1ccc2c(c1)CCCN2Cc1ccc(-c2ccccc2C(=O)O)cc1)c1ccc(F)cc1` [Example 6, (S)-4′-((6-((1-(4-fluorophenyl)ethyl)carbamoyl)-3,4-dihydroquinoline-1(2H)-yl)methyl)-[1,1′-biphenyl]-2-caboxylic acid] was tested. Which “Binding assay (1 μLM)” value did it give?
Answer: +++

Question: With `C[C@H](NC(=O)c1ccc2c(c1)CCCN2Cc1ccc(-c2ccccc2C(=O)O)cc1)c1ccc(Br)cc1` [Example 7, (S)-4′-((6-((1-(4-bromophenyl)ethyl)carbamoyl)-3,4-dihydroquinoline-1(2H)-yl)methyl)-[1,1′-biphenyl]-2-caboxylic acid] as the molecule, how does the “Binding assay (1 μLM)” value read?
Answer: ++++

Question: How did the “Binding assay (1 μLM)” value turn out when `O=C(NCc1ccc([N+](=O)[O-])cc1)c1ccc2c(c1)CCCN2Cc1ccc(-c2ccccc2C(=O)O)cc1` [Example 8, 4′-((6-((4-nitrobenzyl)carbamoyl)-3,4-dihydroquinoline-1(2H)-yl)methyl)-[1,1′-biphenyl]-2-carboxylic acid] was run?
Answer: +++

Question: How did the “Binding assay (1 μLM)” value turn out when `C[C@H](NC(=O)c1ccc2c(c1)CCCN2Cc1ccc(-c2ccccc2C(=O)O)cc1)c1cccc(Cl)c1` [Example 9, (S)-4′-((6-((1-(3-chlorophenyl)ethyl)carbamoyl)-3,4-dihydroquinoline-1(2H)-yl)methyl)-[1,1′-biphenyl]-2-caboxylic acid] was run?
Answer: ++++

Question: For `C[C@H](NC(=O)c1ccc2c(c1)CCCN2Cc1ccc(-c2ccccc2C(=O)O)cc1)c1cccc2ccccc12` [Example 10, (S)-4′-((6-((1-(naphthalene-1-yl)ethyl)carbamoyl)-3,4-dihydroquinoline-1(2H)-yl)methyl)-[1,1′-biphenyl]-2-carboxylic acid], which “Binding assay (1 μLM)” value is on record?
Answer: +++

Question: How did the “Binding assay (1 μLM)” value turn out when `C[C@H](NC(=O)c1ccc2c(c1)CCCN2Cc1ccc(-c2ccccc2C(=O)O)cc1)c1ccc(OC(F)(F)F)cc1` [Example 11, (s)-4′-((6-((1-(4-(trifluoromethoxy)phenyl)ethyl)carbamoyl)-3,4-dihydroquinoline-1(2H)-yl)methyl)-[1,1′-biphenyl]-2-carboxylic acid] was run?
Answer: ++++

Question: For `C[C@H](NC(=O)c1ccc2c(c1)CCCN2Cc1ccc(-c2ccccc2C(=O)O)cc1)c1ccc(C(F)(F)F)cc1` [Example 12, (S)-4′-((6-((1-(4-(trifluoromethyl)phenyl)ethyl)carbamoyl)-3,4-dihydroquinoline-1(2H)-yl)methyl)-[1,1′-biphenyl]-2-carboxylic acid], which “Binding assay (1 μLM)” value is on record?
Answer: ++++

Question: How did the “Binding assay (1 μLM)” value turn out when `C[C@H](NC(=O)c1ccc2c(c1)CCCN2Cc1ccc(-c2ccccc2C(=O)O)cc1)c1ccc(SC(F)(F)F)cc1` [Example 13, (S)-4′-((6-((1-(4-((trifluoromethyl)thio)phenyl)ethyl)carbamoyl)-3,4-dihydroquinoline-1 (2H)-yl)methyl)-[1,1′-biphenyl]-2-carboxylic acid] was run?
Answer: ++++

Question: How did the “Binding assay (1 μLM)” value turn out when `O=C(NC1COc2ccccc2C1)c1ccc2c(c1)CCCN2Cc1ccc(-c2ccccc2C(=O)O)cc1` (stereo not drawn) [Example 15, 4′-((6-(cromene-3-ylcarbamoyl)-3,4-dihydroquinoline-1(2H)-yl)methyl)-[1,1′-biphenyl]-2-carboxylic acid] was run?
Answer: +

Question: How did the “Binding assay (1 μLM)” value turn out when `C[C@H](NC(=O)c1ccc2c(c1)CCCN2Cc1ccc(-c2ccccc2C(=O)O)cc1)c1c(F)cccc1F` [Example 16, (S)-4′-((6-((1-(2,6-fluorophenyl)ethyl)carbamoyl)-3,4-dihydroquinoline-1 (2H)-yl)methyl)-[1,1′-biphenyl]-2-carboxylic acid] was run?
Answer: +++

Question: For `C[C@H](NC(=O)c1ccc2c(c1)CCCN2Cc1ccc(-c2ccccc2C(=O)O)cc1)c1cccc(F)c1` [Example 17, (S)-4′-((6-((1-(3-fluorophenyl)ethyl)carbamoyl)-3,4-dihydroquinoline-1(2H)-yl)methyl)-[1,1′-biphenyl]-2-caboxylic acid], which “Binding assay (1 μLM)” value is on record?
Answer: +++

Question: With `C[C@H](NC(=O)c1ccc2c(c1)CCCN2Cc1ccc(-c2ccccc2C(=O)O)cc1)c1cccc(OC(F)(F)F)c1` [Example 18, (S)-4′-((6-((1-(3-(trifluoromethoxy)phenyl)ethyl)carbamoyl)-3,4-dihydroquinoline-1(2H)-yl)methyl)-[1,1′-biphenyl]-2-carboxylic acid] as the molecule, how does the “Binding assay (1 μLM)” value read?
Answer: +++

Question: Which “Binding assay (1 μLM)” value does the source give for `C[C@H](NC(=O)c1ccc2c(c1)CCCN2Cc1ccc(-c2ccccc2C(=O)O)cc1)c1cccc(C(F)(F)F)c1` [Example 19, (S)-4′-((6-((1-(3-(trifluoromethyl)phenyl)ethyl)carbamoyl)-3,4-dihydroquinoline-1(2H)-yl)methyl)-[1,1′-biphenyl]-2-carboxylic acid] here?
Answer: +++

Question: Which “Binding assay (1 μLM)” value does the source give for `C[C@H](NC(=O)c1ccc2c(c1)CCCN2Cc1ccc(-c2ccccc2C(=O)O)cc1)c1ccc2ccccc2c1` [Example 20, (S)-4′-((6-((1-(naphthalene-2-yl)ethyl)carbamoyl)-3,4-dihydroquinoline-1(2H)-yl)methyl)-[1,1′-biphenyl]-2-carboxylic acid] here?
Answer: ++++

Question: With `C[C@H](NC(=O)c1ccc2c(c1)CCCN2Cc1ccc(-c2ccccc2C(=O)O)cc1)c1ccc(F)c(F)c1` [Example 21, (S)-4′-((6-((1-(3,4-fluorophenyl)ethyl)carbamoyl)-3,4-dihydroquinoline-1 (2H)-yl)methyl)-[1,1′-biphenyl]-2-carboxylic acid] as the molecule, how does the “Binding assay (1 μLM)” value read?
Answer: +++

Question: Which “Binding assay (1 μLM)” value does the source give for `COc1cccc([C@H](C)NC(=O)c2ccc3c(c2)CCCN3Cc2ccc(-c3ccccc3C(=O)O)cc2)c1` [Example 22, (S)-4′-((6-((1-(3-methoxyphenyl)ethyl)carbamoyl)-3,4-dihydroquinoline-1(2H)-yl)methyl)-[1,1′-biphenyl]-2-caboxylic acid] here?
Answer: +++

Question: Which “Binding assay (1 μLM)” value does the source give for `COc1ccccc1[C@H](C)NC(=O)c1ccc2c(c1)CCCN2Cc1ccc(-c2ccccc2C(=O)O)cc1` [Example 23, (S)-4′-((6-((1-(2-methoxyphenyl)ethyl)carbamoyl)-3,4-dihydroquinoline-1(2H)-yl)methyl)-[1,1′-biphenyl]-2-carboxylic acid] here?
Answer: +++

Question: For `C[C@H](NC(=O)c1ccc2c(c1)CCCN2Cc1ccc(-c2ccccc2C(=O)O)cc1)c1ccccc1F` [Example 24, (S)-4′-((6-((1-(2-fluorophenyl)ethyl)carbamoyl)-3,4-dihydroquinoline-1(2H)-yl)methyl)-[1,1′-biphenyl]-2-caboxylic acid], which “Binding assay (1 μLM)” value is on record?
Answer: +++

Question: Which “Binding assay (1 μLM)” value does the source give for `C[C@H](NC(=O)c1ccc2c(c1)CCCN2Cc1ccc(-c2ccccc2C(=O)O)cc1)c1ccccc1C(F)(F)F` [Example 25, (S)-4′-((6-((1-(2-(trifluoromethyl)phenyl)ethyl)carbamoyl)-3,4-dihydroquinoline-1(2)-yl)methyl)-[1,1′-biphenyl]-2-carboxylic acid] here?
Answer: +++
